The text below walks through data of patent US20150133492A1, “N-desmethyldauricine, A Novel Autophagic Enhancer for Treatment of Cancers and Neurodegenerative Conditions Thereof” (Macau University of Science and Technology, priority 2013, published 2015).

For data set [1], the system named is HeLa cancer cells. The data set can be described thus: Quantification of autophagy GFP-LC3 puncta in HeLa. It counts as cell-based, human. Conditions: 10 μM, 4 hours, compared to DMSO control. Here is the method:
(§1) GFP-LC3 puncta formation was quantified as previously described^15. In brief, cells grown on coverslips in a 6-well plate were treated with or without 10 μM of N-desmethyldauricine for 4 hours, the cells were then fixed in 4% paraformaldehyde for 20 minutes at room temperature and then rinsed with PBS. Slides were mounted with FluorSave™ mounting media (Calbiochem, San Diego, Calif.) and examined by fluorescence microscopy. The number of GFP-positive cells with GFP-LC3 puncta formation was examined under the Nikon ECLIPSE 80i microscope. Representative images were captured with CCD digital camera Spot RT3™ (Diagnostic Instruments, Inc., Melville, N.Y.). To quantify for autophagy, the percentage of cells with punctate GFP-LC3 fluorescence was calculated by counting the number of the cells with punctate GFP-LC3 fluorescence in GFP-positive cells. A minimum of 150 cells from 3 randomly selected fields was scored.

The subject of data set [2] is wild type Atg7 cells (Atg7+/+) mouse embryonic fibroblasts. Kind of data set: GFP-LC3 puncta in Atg7 wild-type MEFs. The class given is cell-based. Here is the method: as §1, with “brief, both Atg7 wild-type and deficient mouse embryonic fibroblasts (MEFs)” for “brief, cells”, “with indicated concentrations” for “with or without 10 μM”, “of N-desmethyldauricine. Both Atg7 wild-type and deficient mouse embryonic fibroblasts” for “of N-desmethyldauricine for 4 hours, the cells”

For data set [3], the system named is panel of cancer and normal cells. Kind of data set: Quantification of autophagy GFP-LC3 puncta in cell panel. The class given is cell-based. Conditions: fluorescent microscopy. As for the experimental part: as §1
The test system of the next data set is PC 12 cells. The data set can be described thus: Crystal violet cell viability assay in PC-12. The class given is cell-based. Conditions: 7.5 μM, 24 hours. Here is the method:
For cell viability assay measured by crystal violet staining, PC-12 cells were incubated in 35 mm disc followed by the addition of N-desmethyldauricine at 7.5 μM for 24 hours. The cells were then incubated with crystal violet for 10 minutes followed by a ddH2O wash. The stained cells image was captured by CCD digital camera Spot RT3™ under the Nikon ECLIPSE 80i microscope with 4× magnification. Cell viability was quantified by dissolving stained cells in 10% acetic acid (200 μL/well). The colorimetric reading of the solute mixture was then determined by spectrophotometer at OD 560 nm. The percentage of cell viability was calculated using the following formula: Cell viability (%)=Cells numbertreated/Cells numberDMSO control×100. Data was obtained from three independent experiments.

Data set [4] has as its system autophagy deficient cells (Atg7−/−). Kind of data set: Annexin V flow cytometry cell death, Atg7 deficient MEFs. It counts as cell-based, mouse. The note with it: 10 μM, 24 h. Here is the method: (§2) Cell viability was measured using an annexin V staining kit (BD Biosciences, San Jose, Calif., USA). Briefly, Atg7 wild-type (Atg7^+/+ or Atg7-wt) and Atg7 deficient (Atg7^−/− or Atg7-ko) mouse embryonic fibroblasts (MEFs) were treated with the 10 μM N-desmethyldauricine for 24 h. Cells were then harvested and analysed by multiparametric flow cytometry using FITC-Annexin V and Propidium iodide staining (BD Biosciences, San Jose, Calif., USA) according to the manufacturer's instructions. Flow cytometry was then carried out using a FACSCalibur flow cytometer (BD Biosciences, San Jose, Calif., USA). Data acquisition and analysis was performed with CellQuest (BD Biosciences, San Jose, Calif., USA). Data were obtained from three independent experiments.
Background: In flow cytometry, cells or beads pass a laser one at a time.

The test system of another data set is HeLa cells. Kind of data set: RT2 Profiler autophagy PCR array. The class given is cell-based, human. The source says: For PCR array analysis, N-desmethyldauricine treated HeLa cells were used to obtain the total RNA by Qiagen RNeasy® Mini Kit (Qiagen). The autophagy pathway specific RT-PCR array was used to evaluate the potential alterations of related genes after N-desmethyldauricine treatments in HeLa cells. The autophagy array comprised 87 genes selected based on their involvement in regulating autophagy induction. There were 5 housekeeping genes served as positive controls. Total RNA was reverse transcripted using the RT2 First Strand Kit. Real-time PCR reactions were carried out on ABI 7500 (Applied Biosystems) using the RT2 SYBR® Green qPCR Mastermix (Qiagen) according to manufacturer's instructions. Data analysis was performed using the Qiagen's integrated web-based software package for the PCR Array System, which automatically performs all ΔΔCt based fold-change calculations from raw threshold cycle data.

The subject of data set [5] is human normal liver cells (LO2). The data set can be described thus: MTT cytotoxicity assay, normal liver cells. It counts as cell-based. The note with it: read-out: IC50, cytotoxic effect. As for the experimental part: (§3) The test compound of N-desmethyldauricine was dissolved in DMSO at a final concentration of 100 mmol/L and stored at −20° C. Cytotoxicity was assessed using the 3-(4,5-dimethylthiazol-2-yl)-2,5-diphenyltetrazolium bromide assay as previously described^17. Cell number, 4000-8000 of HeLa (human cervical cancer), MCF-7 (human breast cancer), HepG2 (human liver cancer), Hep3B (human liver cancer), H1299 (human lung cancer), A549 (human lung cancer), PC3 (human prostate cancer), LLC-1 (mouse Lewis lung carcinoma) and LO2 (human normal liver) cells were seeded on 96-well plates per well, respectively. After overnight pre-incubation, the cells were exposed to different concentrations of N-desmethyldauricine (namely […], 0.039 μmol) for 3 days. Subsequently, 10 μL of MTT reagents was added to each well and incubated at 37° C. for 4 hours followed by the addition of 100 μL solubilization buffer (10% SDS in 0.01 mol/L HCl) and overnight incubation. Absorbance at 585 nm was determined from each well on the following day. The percentage of cell viability was calculated using the following formula: Cell viability (%)=Cells number treated/Cells number DMSO control×100. Data was obtained from three independent experiments.
Background: Tetrazolium assays rely on reduction of a dye to a coloured formazan, in cell work by metabolically active cells.

Data set [6] concerns panel of human cancer cells. The data set can be described thus: MTT cytotoxicity assay, panel of human cancer cells. The note with it: 72 hours, read-out: mean IC50, cell cytotoxicity. It counts as cell-based. Here is the method: as §3
A further data set has as its system Atg7+/+ cells. Kind of data set: Annexin V flow cytometry cell death, Atg7 wild-type MEFs. It counts as cell-based, mouse. The note with it: 10 μM, 24 h. As for the experimental part:
as §2

For data set [7], the system named is HeLa cancer cells. The data set can be described thus: Transmission electron microscopy of autophagosomes/autolysosomes. The class given is cell-based, human. The note with it: treated HeLa cancer cells. The text has this:
N-desmethyldauricine treated HeLa cells were fixed overnight with 2.5% glutaraldehyde followed by a buffer wash. Samples were post-fixed in 1% OsO4 and embedded in Araldite 502. Ultrathin sections were double stained with uranyl acetate and lead citrate, and analyzed by Philips CM 100 transmission electron microscope at a voltage of 80 kV.

Each structure is given as a SMILES string. pIC50: −log10 of the molar value.

What is called pIC50 is −log10 of the IC50, conventionally taken in molar units. For the compound `COc1cc2c(cc1OC)[C@@H](Cc1ccc(Oc3cc(C[C@H]4NCCc5cc(OC)c(OC)cc54)ccc3O)cc1)N(C)CC2` [N-desmethyldauricine], the GFP-LC3 puncta formation entry in the data set on HeLa cancer cells [1] is “significantly induced”; in data set [2] it was “induce GFP-LC3 puncta formation”; in data set [3], “increased”. Moreover, the “toxicity in PC 12 cells” value in the data set on PC 12 cells is given as “no toxicity”. Also, the cell death entry in data set [4] is given as “not”; in the data set on Atg7+/+ cells, “markedly induce cell death”. In addition, in the data set on HeLa cells, the “gene regulation during autophagy induction” value was “regulation of a panel of genes, i.e. Igf1, Fam176a, Ulk1, PERK, Cxcr4 and p62”. The pIC50 in data set [5] was less than 4.21; in data set [6], 4.71 to 5.08. Besides, in the data set with HeLa cancer cells [7], the “autophagosomes/autolysosomes by electron microscopy” value is on record as “found”.
